Measured values published in US20250197799A1, “CELLS DERIVED FROM POLYPEDILUM VANDERPLANKI AND ODOR SENSOR EQUIPPED THEREWITH” (University of Maryland, College Park, priority 2022, published 2025).
Entries after “also recorded” stand apart in the source; their conditions may differ.

Assays:
Orco-Or47a [1] = target: T1, Orco-Or47a (Drosophila melanogaster, UniProt P81921+Q9VNB5); assay: Exogenous membrane protein function before drying and after drying-rehydration, Orco-Or47a stable expression cell line; assay type: cell-based; set-up: remnant residues; expressed in transfected cells; host or cells: Pv11 cells (Polypedilum vanderplanki), CRIS-PITCh knock-in at the Pv.00443 locus downstream of the 121 promoter, Zeocin selection and single-cell sorting
T1 sequence (Q9VNB5 1-486): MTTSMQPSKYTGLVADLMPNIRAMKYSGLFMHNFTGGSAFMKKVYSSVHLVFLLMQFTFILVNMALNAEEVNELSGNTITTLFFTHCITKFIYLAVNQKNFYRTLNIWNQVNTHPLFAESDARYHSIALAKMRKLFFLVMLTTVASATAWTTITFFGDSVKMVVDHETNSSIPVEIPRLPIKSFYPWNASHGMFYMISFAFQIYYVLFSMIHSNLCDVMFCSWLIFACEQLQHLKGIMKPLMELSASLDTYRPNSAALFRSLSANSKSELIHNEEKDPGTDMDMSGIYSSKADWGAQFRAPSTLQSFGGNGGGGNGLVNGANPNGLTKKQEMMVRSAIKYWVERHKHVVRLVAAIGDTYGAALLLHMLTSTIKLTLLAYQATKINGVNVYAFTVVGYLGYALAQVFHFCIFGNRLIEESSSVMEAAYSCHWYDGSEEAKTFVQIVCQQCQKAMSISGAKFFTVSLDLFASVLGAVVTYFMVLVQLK
T1 sequence (P81921 1-385): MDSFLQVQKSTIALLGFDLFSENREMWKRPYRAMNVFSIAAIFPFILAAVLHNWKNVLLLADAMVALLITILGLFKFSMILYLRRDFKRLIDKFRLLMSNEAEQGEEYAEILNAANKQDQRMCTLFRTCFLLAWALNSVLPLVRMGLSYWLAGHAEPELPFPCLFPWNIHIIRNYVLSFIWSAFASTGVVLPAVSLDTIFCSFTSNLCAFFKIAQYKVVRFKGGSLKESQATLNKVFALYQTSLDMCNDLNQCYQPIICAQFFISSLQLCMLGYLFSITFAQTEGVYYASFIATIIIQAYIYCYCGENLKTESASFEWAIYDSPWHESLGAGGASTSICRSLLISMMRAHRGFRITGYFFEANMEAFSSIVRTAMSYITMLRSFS
Method: To assess the drought tolerance of the cell lines, the cells were dried according to the following protocol. 4×10^7 Pv11-GCaMP6f stable expression cell lines were centrifuged at 700 g for 3 minutes and the supernatant removed. The precipitated cells were suspended in a 600 mM trehalose mix of 600 mM trehalose and IPL-41 medium at a ratio of 9:1, transferred to a 2 ml flask, and incubated at 25° C. for 48 hours. After 48 hours, the obtained cells were centrifuged at 700 g for 3 minutes and the supernatant was removed. The sedimented cells were suspended in 400 μl of 600 mM trebalose mix, and 40 μl were dropped onto a 35 mm dish. The 35 mm dish was dried for 10 days under conditions of 25° C. and humidity of 10% or less.
6. Assessment of exogenous membrane protein function after drying-rehydration. Using the Orco stable expression cell line and Orco-Or47a stable expression cell line, in order to assess the function of exogenous membrane proteins before drying and after 1 hour of rehydration after drying, fluorescence intensity generated in response to stimulation with VUAA1 (Orco agonist) or pentyl acetate (ligand of Or47a) was measured in the same manner as in 3.2 above.
The fluorescence intensity was digitized from the photograph, and ΔF/F was calculated according to the following formula:
Where the summation Σi=1^n is over the n cells in the image, Fi,after means the fluorescence intensity of the cell i after adding the ligand solution, and Fi,0 means the fluorescence intensity of the cell i before adding the ligand solution.
Specifically, a fluorescence image was taken under the condition in which the excitation wavelength/fluorescence wavelength was 488 nm/525 nm. In the fluorescence intensity quantification, the cells were identified in the photographed image, and the fluorescence intensity (F) was measured for each time. The initial values of fluorescence intensity (F0) were subtracted from the measured fluorescence intensity at each time to obtain the amount of change in fluorescence (ΔF), which was then normalized by dividing by the initial value of fluorescence intensity (F0) to obtain (Δ F/F0). A number of cells n were selected from the captured image, ΔF/F0 were produced for each, and the average value (including standard deviation, SD) of the results was graphed. For example, 25 cells were selected from the captured image, ΔF/F0 for each were produced, and the averaged results (including SD) were graphed. […] The Orco-Or47a stable expression cell line before drying responded to the Orco agonist (VUAA1) and the specific ligand of Or47a, pentyl acetate.

Orco-Or47a [2] = target: T1, Orco-Or47a; assay: Response of BAM-immobilized Orco-Or47a stable expression cell line; assay type: cell-based; set-up: remnant residues; expressed in transfected cells; host or cells: Pv11 cells (Polypedilum vanderplanki), CRIS-PITCh knock-in at the Pv.00443 locus downstream of the 121 promoter, Zeocin selection and single-cell sorting; conditions: Pv11-GCaMP6f-Orco-Or47a stable expression cell line immobilized with BAM
Description: 8.1 Pv11 cell immobilization. A cell membrane modifier (BAM: Biocompatible Anchor for cell Membrane) was used to fix the stable expression cell line obtained above. BAM consists of a hydrophilic PEG chain, an NHS group, and a hydrophobic oleyl group; by bringing BAM into contact with a collagen-coated dish, the NHS group binds to collagen, and the oleyl group interacts with the cell membrane through hydrophobic interactions, allowing cells to adhere. BAM (SUNBRIGHT OE-040CS, Yuka Sangyo Co., Ltd.) was dissolved in DMSO (Fujifilm Wako Pure Chemical Industries) to a concentration of 10 mM. The 10 mM BAM solution was adjusted to DPBS(-) (Thermo Fisher) to a final concentration of 100 μM, 100 μl was dropped onto a collagen 1-coated 48-well microplate (IWAKI) and incubated at 37° C. for 1 hour. The BAM solution was removed, washed once with DPBS(-) (Thermo Fisher) and five times with MilliQ, and allowed to stand still to evaporate water droplets. The Pv11 cell suspension was centrifuged at 700 g for 3 minutes, the supernatant was removed, the cell pellet was suspended in DPBS(-) (Thermo Fisher) and dropped onto a BAM-coated dish. […]
8.2 Functional confirmation of exogenous membrane proteins in fixed cells. […] Each substance was reacted with each cell in the same manner as in 3.2 above, and the fluorescence intensity was measured. […]

[3] = 1 hour after drying and rehydration, compared to DMSO control

Structure (SMILES)	response as change in fluorescence intensity (ΔF/F0) (Orco-Or47a [1]; [3])	response as change in fluorescence intensity (ΔF/F0) (Orco-Or47a [1]; before drying)	response (fluorescence intensity) of immobilized cells (Orco-Or47a [2])
CCc1ccc(NC(=O)CSc2nnc(-c3cccnc3)n2CC)cc1 [VUAA1, N-(4-ethylphenyl)-2-{[4-ethyl-5-(pyridin-3-yl)-4H-1,2,4-triazol-3-yl]sulfanyl}acetamide]	significant difference in responsiveness; also recorded: fluorescence was observed	responded	responded
CCCCCOC(C)=O [pentyl acetate]	significant difference in responsiveness; also recorded: fluorescence was observed	responded	responded
